Measured values: ChEMBL document CHEMBL5390322, “Discovery of 5-Azaquinoxaline Derivatives as Potent and Orally Bioavailable Allosteric SHP2 Inhibitors” (ACS Med Chem Lett, 2023)
In brackets after ≈: the same amount, converted by molar mass.

Legend:
[1] = Metabolic stability in human liver microsome assessed as intrinsic clearance at […] preincubated for 5 mins followed by NADPH addition and measured after 20 mins by LC-MS analysis; type: ADME; conditions: liver microsomes, dose 2.5 µM, time 25 min, read-out: CLH
[2] = Metabolic stability in mouse liver microsome assessed as intrinsic clearance at […] preincubated for 5 mins followed by NADPH addition and measured after 20 mins by LC-MS analysis; type: ADME; conditions: liver microsomes, dose 2.5 µM, time 25 min, read-out: CLH
[3] = Metabolic stability in mouse hepatocyte assessed as intrinsic clearance incubated for 1 to 2 hrs by LC-MS analysis; type: ADME, cell-based; conditions: hepatocytes, time 1-2 hrs, read-out: CLH
[4] = Metabolic stability in human hepatocyte assessed as intrinsic clearance incubated for 1 to 2 hrs by LC-MS analysis; type: ADME, cell-based; conditions: hepatocytes, time 1-2 hrs, read-out: CLH
[5] = target: T1, Mitogen-activated protein kinase; ERK1/ERK2 (Homo sapiens, UniProt P27361+P28482); assay: Inhibition of ERK1/2 phosphorylation at Thr202/Tyr204 residues in human KYSE520 cells incubated for 1 hrs by Western blot analysis; type: cell-based
T1 sequence (P27361 whole entry, looked up): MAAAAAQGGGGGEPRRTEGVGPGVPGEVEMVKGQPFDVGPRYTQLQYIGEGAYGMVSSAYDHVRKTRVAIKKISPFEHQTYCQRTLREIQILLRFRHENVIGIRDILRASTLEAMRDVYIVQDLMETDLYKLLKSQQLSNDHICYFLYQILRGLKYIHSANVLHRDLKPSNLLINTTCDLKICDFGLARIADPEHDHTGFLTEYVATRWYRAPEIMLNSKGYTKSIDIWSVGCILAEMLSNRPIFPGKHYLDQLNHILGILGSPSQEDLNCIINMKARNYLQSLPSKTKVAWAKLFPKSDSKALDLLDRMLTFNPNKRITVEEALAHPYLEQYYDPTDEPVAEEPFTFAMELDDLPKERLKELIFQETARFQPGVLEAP
T1 sequence (P28482 whole entry, looked up): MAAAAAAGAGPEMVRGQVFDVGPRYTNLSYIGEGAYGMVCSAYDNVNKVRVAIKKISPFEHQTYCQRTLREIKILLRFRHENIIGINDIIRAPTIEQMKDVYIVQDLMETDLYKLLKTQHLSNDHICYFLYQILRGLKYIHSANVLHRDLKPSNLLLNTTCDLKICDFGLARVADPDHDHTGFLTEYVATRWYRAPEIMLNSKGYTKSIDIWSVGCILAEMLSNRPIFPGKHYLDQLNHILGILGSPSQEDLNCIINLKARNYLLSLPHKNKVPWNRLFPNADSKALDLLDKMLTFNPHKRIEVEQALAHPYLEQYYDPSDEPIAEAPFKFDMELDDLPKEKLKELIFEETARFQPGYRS

[6] = Permeability of compound from apical to basolateral side in LLC-PK1 cells incubated for 2 hrs by LC-MS/MS analysis; type: ADME, cell-based, Sus scrofa; conditions: pig, read-out: permeability
[7] = target: T2, Tyrosine-protein phosphatase non-receptor type 11 (Homo sapiens, UniProt Q06124); assay: Allosteric inhibition of recombinant full length 6His-tagged SHP2 (2 to 527 residues) (unknown origin) expressed in Escherichia coli using DiFMUP as substrate incubated for 15 mins by microplate reader analysis
T2 sequence (Q06124 whole entry): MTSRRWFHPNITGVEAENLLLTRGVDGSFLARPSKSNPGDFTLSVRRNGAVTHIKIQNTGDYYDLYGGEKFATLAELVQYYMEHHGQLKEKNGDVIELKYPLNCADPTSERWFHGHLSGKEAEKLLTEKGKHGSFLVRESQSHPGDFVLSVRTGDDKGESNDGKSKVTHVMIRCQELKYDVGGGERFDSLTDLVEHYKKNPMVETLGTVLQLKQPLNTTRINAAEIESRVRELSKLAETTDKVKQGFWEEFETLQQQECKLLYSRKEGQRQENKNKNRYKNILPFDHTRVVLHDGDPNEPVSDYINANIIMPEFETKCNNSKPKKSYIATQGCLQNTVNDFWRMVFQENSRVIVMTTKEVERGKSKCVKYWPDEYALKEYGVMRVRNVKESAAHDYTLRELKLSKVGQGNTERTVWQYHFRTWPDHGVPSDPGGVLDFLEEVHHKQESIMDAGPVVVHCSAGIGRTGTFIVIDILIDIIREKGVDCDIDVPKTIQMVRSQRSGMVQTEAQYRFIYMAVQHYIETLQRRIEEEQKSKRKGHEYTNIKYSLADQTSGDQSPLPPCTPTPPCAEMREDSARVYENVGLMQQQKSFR

[8] = Solubility of the compound in FaSSIF at 1 mg/ml incubated for 24 hrs by LC-MS/MS analysis; type: physicochemical
[9] = target: T1, Mitogen-activated protein kinase; ERK1/ERK2; conditions: KYSE520, time 1.0 hrs
[10] = Cmax in CD-1 mouse at 10 mg/kg, po measured upto 24 hrs by LC-MS/MS method; type: ADME, organism-based; set-up: dose 10 mg/kg, time < 24 hrs, route po; conditions: in vivo
[11] = AUClast in CD-1 mouse at 10 mg/kg, po measured upto 24 hrs by LC-MS/MS method; type: ADME, organism-based; set-up: time < 24 hrs, dose 10 mg/kg, route po; conditions: in vivo
[12] = Clearance in CD-1 mouse at 1 mg/kg, iv measured upto 8 hrs by LC-MS/MS method; type: ADME, organism-based; conditions: in vivo
[13] = Tmax in CD-1 mouse at 10 mg/kg, po measured upto 24 hrs by LC-MS/MS method; type: ADME, organism-based; conditions: in vivo
[14] = Volume of distribution at steady state in CD-1 mouse at 1 mg/kg, iv measured upto 8 hrs by LC-MS/MS method; type: ADME, organism-based; conditions: in vivo, read-out: Vdss
[15] = Oral bioavailability in CD-1 mouse at 10 mg/kg measured upto 24 hrs by LC-MS/MS method; type: ADME, organism-based; conditions: in vivo
[16] = target: T1, Mitogen-activated protein kinase; ERK1/ERK2; conditions: KYSE520, time 1.0 hrs; remark: listed apart in the source
[17] = Half life in CD-1 mouse at 1 mg/kg, iv measured upto 8 hrs by LC-MS/MS method; type: ADME, organism-based; conditions: in vivo

Structure (SMILES) | CLint scaled at […] [1] | CLint scaled at […] [2] | CLint scaled [3] | CLint scaled at 10000 µM [4] | IC50 [5] | Papp A→B at 2 h [6] | IC50 [7] | other results
CC1(N)CCN(c2cnc3nc(Sc4cccc(C#N)c4Cl)ccc3n2)CC1 | 9 mL/min/kg | 23 mL/min/kg | 12 mL/min/kg | 7 mL/min/kg | 991 nM | 9 ×10⁻⁶ cm/s |  | 
CC1(N)CCN(c2ncc(Sc3cccc(Cl)c3Cl)n3nccc23)CC1 |  |  |  |  | 2785 nM |  | 208 nM | 
Nc1nccc(Sc2ccc3nc(N4CCC5(CC4)Cc4cc(Cl)ccc4[C@H]5N)cnc3n2)c1Cl |  |  |  |  | 78 nM |  | 35 nM | solubility at 24 h [8]: 24 µg/mL (≈ 45.8 µM)
CC1(N)CCN(c2ccnc3c(Sc4cccc(Cl)c4Cl)cnn23)CC1 |  |  |  |  | > 20000 nM |  | 530 nM | 
CC1(N)CCN(c2cnc3nc(Sc4cccn5nccc45)ccc3n2)CC1 |  |  |  |  | 1388 nM | 14 ×10⁻⁶ cm/s |  | 
CC1(N)CCN(c2cnc3nc(-c4cccc(F)c4Cl)ccc3n2)CC1 |  |  |  |  | 1184 nM | 19 ×10⁻⁶ cm/s | 344 nM | 
COc1cccc(Sc2ccc3nc(N4CCC(C)(N)CC4)cnc3n2)c1Cl | 9 mL/min/kg | 51 mL/min/kg | 45 mL/min/kg | 9 mL/min/kg | 786 nM |  | 104 nM | 
CC1(N)CCN(c2cnc3c(cnn3-c3cccc(Cl)c3Cl)n2)CC1 |  |  |  |  | 1951 nM |  | 1930 nM | 
CC1(N)CCN(c2cnc3nc(-c4cccc5ccccc45)ccc3n2)CC1 | 3 mL/min/kg | 22 mL/min/kg | 8 mL/min/kg | 2 mL/min/kg | 510 nM | 13 ×10⁻⁶ cm/s |  | 
CC1(N)CCN(c2ccc(Sc3cccc(Cl)c3Cl)n3nccc23)CC1 |  |  |  |  | > 20000 nM |  | 3690 nM | 
CC1(N)CCN(c2cnc3cc(-c4cccc(Cl)c4Cl)ccc3n2)CC1 |  |  |  |  | > 20000 nM |  |  | 
CC1(N)CCN(c2cnc3nc(Oc4cccc(Cl)c4Cl)ccc3n2)CC1 | 4 mL/min/kg | 18 mL/min/kg | 10 mL/min/kg | 2 mL/min/kg | 767 nM | 11 ×10⁻⁶ cm/s |  | 
CC1(N)CCN(c2cnc3c(Sc4cccc(Cl)c4Cl)cnn3c2)CC1 |  |  |  |  | > 20000 nM |  | 634 nM | 
Nc1nccc(Sc2ccc3nc(N4CCC[C@H](N)CC4)cnc3n2)c1Cl | 4 mL/min/kg | 19 mL/min/kg | 8 mL/min/kg | 3 mL/min/kg | 84 nM | 1 ×10⁻⁶ cm/s | 102 nM | 
Nc1nccc(Sc2ccc3nc(N4[C@H]5CC[C@H]4CC(N)C5)cnc3n2)c1Cl (some centres undefined) | 3 mL/min/kg | 18 mL/min/kg | 17 mL/min/kg | 2 mL/min/kg | 28 nM | 3 ×10⁻⁶ cm/s |  | solubility at 24 h [8]: 1000 µg/mL (≈ 2420 µM)
CC1(N)CCN(c2cnc(-c3cccc(Cl)c3Cl)c(N)n2)CC1 |  |  |  |  | 254 nM |  |  | 
CC1(N)CCN(c2cnc3nc(-c4cccc(Cl)c4Cl)ccc3n2)CC1 | 3 mL/min/kg | 25 mL/min/kg | 8 mL/min/kg | 2 mL/min/kg | 471 nM |  |  | 
CC1(N)CCN(c2cnc3nc(Sc4cccc(Cl)c4Cl)ccc3n2)CC1 |  |  |  |  | 1068 nM |  | 47 nM | 
COc1nccc(Sc2ccc3nc(N4CCC(C)(N)CC4)cnc3n2)c1Cl | 6 mL/min/kg | 20 mL/min/kg | 7 mL/min/kg | 2 mL/min/kg | 660 nM | 12 ×10⁻⁶ cm/s | 355 nM | 
CNC1(C)CCN(c2cnc3nc(Sc4ccnc(N)c4Cl)ccc3n2)CC1 | 3 mL/min/kg | 20 mL/min/kg | 16 mL/min/kg | 5 mL/min/kg | 202 nM | 12 ×10⁻⁶ cm/s |  | solubility at 24 h [8]: 1000 µg/mL (≈ 2400 µM)
Nc1nccc(Sc2ccc3nc(N4C[C@H]5C[C@@H](C4)[C@H]5N)cnc3n2)c1Cl | 4 mL/min/kg | 28 mL/min/kg | 23 mL/min/kg | 5 mL/min/kg | 227 nM | 14 ×10⁻⁶ cm/s |  | 

Now from value to compound, other results behind:

CLint scaled at […] [1] | CLint scaled at […] [2] | CLint scaled [3] | CLint scaled at 10000 µM [4] | IC50 [5] | Papp A→B at 2 h [6] | IC50 [7] | Structure (SMILES) | other results
5 mL/min/kg | 14 mL/min/kg | 16 mL/min/kg | 2 mL/min/kg | 68 nM | 10 ×10⁻⁶ cm/s |  | CC1(CN)CCN(c2cnc3nc(Sc4ccnc(N)c4Cl)ccc3n2)CC1 | solubility at 24 h [8]: 909 µg/mL (≈ 2190 µM)
6 mL/min/kg | 21 mL/min/kg | 33 mL/min/kg | 11 mL/min/kg | 29 nM |  | 47 nM | COc1ccc2c(c1)[C@@H](N)C1(CCN(c3cnc4nc(Sc5ccnc(N)c5Cl)ccc4n3)CC1)C2 | 
6 mL/min/kg | 25 mL/min/kg | 33 mL/min/kg | 10 mL/min/kg | 17 nM |  |  | Cc1ccc2c(c1)[C@@H](N)C1(CCN(c3cnc4nc(Sc5ccnc(N)c5Cl)ccc4n3)CC1)C2 | 
14 mL/min/kg | 41 mL/min/kg | 35 mL/min/kg | 15 mL/min/kg | 17 nM | 10 ×10⁻⁶ cm/s |  | Cc1ccc2c(n1)CC1(CCN(c3cnc4nc(Sc5ccnc(N)c5Cl)ccc4n3)CC1)[C@@H]2N | 
3 mL/min/kg | 24 mL/min/kg | 16 mL/min/kg | 5 mL/min/kg | 58 nM | 13 ×10⁻⁶ cm/s | 72 nM | C[C@@H]1OCC2(CCN(c3cnc4nc(Sc5ccnc(N)c5Cl)ccc4n3)CC2)[C@@H]1N | fIC50 [9]: 0.244 µg/mL; fIC90 [9]: 2.2 µg/mL; Cmax [10]: 533 ng/mL; AUC(0-t) at 24 h [11]: 2820 ng·h/mL; clearance [12]: 34.3 mL/min/kg; Tmax [13]: 2 h; Vd [14]: 3.46 L/kg; solubility at 24 h [8]: 894 µg/mL (≈ 1950 µM); bioavailability [15]: 58.1%; fIC50 [16]: 0.244 µg/mL; fIC90 [16]: 2.2 µg/mL; half-life [17]: 1.48 h
7 mL/min/kg | 29 mL/min/kg | 30 mL/min/kg | 12 mL/min/kg | 8 nM | 6 ×10⁻⁶ cm/s |  | COc1cnc2c(c1)[C@@H](N)C1(CCN(c3cnc4nc(Sc5ccnc(N)c5Cl)ccc4n3)CC1)C2 | 
3 mL/min/kg | 30 mL/min/kg | 8 mL/min/kg | 2 mL/min/kg | 58 nM | 10 ×10⁻⁶ cm/s |  | CC1(N)CCN(c2cnc3nc(Sc4ccnc(N)c4Cl)ccc3n2)CC1 | 
5 mL/min/kg | 17 mL/min/kg | 37 mL/min/kg | 12 mL/min/kg | 10 nM | 6 ×10⁻⁶ cm/s |  | Nc1nccc(Sc2ccc3nc(N4CCC5(CC4)Cc4cc(F)ccc4[C@H]5N)cnc3n2)c1Cl | 
8 mL/min/kg | 19 mL/min/kg | 34 mL/min/kg | 10 mL/min/kg | 8 nM | 1 ×10⁻⁶ cm/s |  | Nc1nccc(Sc2ccc3nc(N4CCC5(CC4)Cc4ccccc4[C@H]5N)cnc3n2)c1Cl | solubility at 24 h [8]: 60 µg/mL (≈ 122 µM)
 | 10 mL/min/kg | 31 mL/min/kg | 8 mL/min/kg | 142 nM | 1 ×10⁻⁶ cm/s |  | Nc1nccc(Sc2ccc3nc(N4CCC5(CC4)C[C@@H](O)C[C@H]5N)cnc3n2)c1Cl | 
13 mL/min/kg | 47 mL/min/kg | 26 mL/min/kg | 12 mL/min/kg | 6 nM | 9 ×10⁻⁶ cm/s |  | Nc1nccc(Sc2ccc3nc(N4CCC5(CC4)Cc4ncc(F)cc4[C@H]5N)cnc3n2)c1Cl | 
